Experimental data from patent US20250034173A1, “PYRIDO[4,3-D]PYRIMIDINE COMPOUNDS” (PFIZER INC., priority 2023, published 2025).
pIC50, pKd: −log10 of the molar value.

Assays:
KRAS Wild Type [1] = target: T1, KRAS Wild Type (Homo sapiens (Human), UniProt P01116); assay: SPR binding affinity and kinetics, GDP-loaded KRAS Wild Type; conditions: GDP loaded protein, geomean
Text: (§1) No additional regeneration was used.
(§2) Compound dissociation was monitored for at least 3600 seconds. […] No additional regeneration was used.
(§3) The adequateness of the fit was judged by c2 values and the randomness of residue distribution.

[2] = test system: SW620 (colorectal cancer cell line); assay: KRAS Cell Titer Glo (CTG) cell proliferation assay, SW620; format: cell-based; conditions: Homo sapiens, SW-620, 168 h; SW620 cells, 7-day CTG, geomean IC50
Method in brief: (§4)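 Compounds pre-dispensed in 0.1% DMSO before seeding H358 (300 cells/well), SW620 (750) or PANC08.13 (600); 7-day exposure at 37 °C, 5% CO2. Viability by CellTiter-Glo luminescence after 15 min at room temperature. Percent effect normalised to DMSO (0%) and 1 uM trametinib (100%); geomean IC50.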

KRAS G12D [3] = target: T2, KRAS G12D (Homo sapiens (Human), UniProt P01116, G12D); assay: SPR binding affinity and kinetics, GTPγS-loaded KRAS G12D; conditions: GTPγS loaded protein, geomean
Method in brief: (§5)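 Surface plasmon resonance tracked compound dissociation for at least 3600 seconds, with no additional regeneration between cycles. Fit adequacy was judged from c2 values and randomness of the residue distribution.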

HRAS Wild Type = HRAS Wild Type (Homo sapiens (Human), UniProt P01112); assay: SPR binding affinity and kinetics, GTPγS-loaded HRAS Wild Type; conditions: GTPγS loaded protein, geomean
Method in brief: as §5

KRAS G12C [4] = target: T3, KRAS G12C (Homo sapiens (Human), UniProt P01116, G12C); assay: SPR binding affinity and kinetics, GDP-loaded KRAS G12C; conditions: GDP loaded protein, geomean
Text: as §1, §2, §3

[5] = test system: H358 (non-small cell lung cancer cell line); assay: KRAS Cell Titer Glo (CTG) cell proliferation assay, H358; format: cell-based; conditions: Homo sapiens, NCI-H358, 168 h; H358 cells, 7-day CTG, geomean IC50
Method in brief: as §4

NRAS Wild Type = NRAS Wild Type (Homo sapiens (Human), UniProt P01111); assay: SPR binding affinity and kinetics, GTPγS-loaded NRAS Wild Type; conditions: GTPγS loaded protein, geomean
Method in brief: as §5

KRAS G12C [6] = target: T3, KRAS G12C; assay: SPR binding affinity and kinetics, GTPγS-loaded KRAS G12C; conditions: GTPγS loaded protein, geomean
Method in brief: as §5

[7] = test system: PANC08.13 (pancreatic cancer cell line); assay: KRAS Cell Titer Glo (CTG) cell proliferation assay, PANC08.13; format: cell-based; conditions: Homo sapiens, PANC-08-13, 168 h; PANC08.13 cells, 7-day CTG, geomean IC50
Method in brief: as §4

KRAS G12V [8] = target: T4, KRAS G12V (Homo sapiens (Human), UniProt P01116, G12V); assay: SPR binding affinity and kinetics, GDP-loaded KRAS G12V; conditions: GDP loaded protein, geomean
Text: as §1, §2, §3

KRAS Wild Type [9] = target: T1, KRAS Wild Type; assay: SPR binding affinity and kinetics, GTPγS-loaded KRAS Wild Type; conditions: GTPγS loaded protein, geomean
Method in brief: as §5

KRAS G12D [10] = target: T2, KRAS G12D; assay: SPR binding affinity and kinetics, GDP-loaded KRAS G12D; conditions: GDP loaded protein, geomean
Text: as §1, §2, §3

KRAS G12V [11] = target: T4, KRAS G12V; assay: SPR binding affinity and kinetics, GTPγS-loaded KRAS G12V; conditions: GTPγS loaded protein, geomean
Method in brief: as §5

NRAS Wild Type, sequence (P01111 2-185): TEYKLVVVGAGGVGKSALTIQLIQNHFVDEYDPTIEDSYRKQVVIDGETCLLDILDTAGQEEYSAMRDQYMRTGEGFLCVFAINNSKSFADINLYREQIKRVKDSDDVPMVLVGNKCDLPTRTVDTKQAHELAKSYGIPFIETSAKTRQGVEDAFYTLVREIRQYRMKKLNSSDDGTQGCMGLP
HRAS Wild Type, sequence (P01112 2-184): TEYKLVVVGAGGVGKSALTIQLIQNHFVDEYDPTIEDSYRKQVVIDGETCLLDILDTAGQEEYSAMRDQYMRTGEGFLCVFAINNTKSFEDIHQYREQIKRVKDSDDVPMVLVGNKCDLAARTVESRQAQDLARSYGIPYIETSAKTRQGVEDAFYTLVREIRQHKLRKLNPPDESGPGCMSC
T3 sequence (P01116 other isoform, or with tags, fused parts or gaps G12C): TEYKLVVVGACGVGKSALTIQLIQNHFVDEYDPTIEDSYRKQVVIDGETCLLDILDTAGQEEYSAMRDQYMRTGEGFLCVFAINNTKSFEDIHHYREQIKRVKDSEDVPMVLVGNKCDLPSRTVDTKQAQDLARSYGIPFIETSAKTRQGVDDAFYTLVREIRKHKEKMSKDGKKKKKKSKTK
T1 sequence (P01116 other isoform, or with tags, fused parts or gaps): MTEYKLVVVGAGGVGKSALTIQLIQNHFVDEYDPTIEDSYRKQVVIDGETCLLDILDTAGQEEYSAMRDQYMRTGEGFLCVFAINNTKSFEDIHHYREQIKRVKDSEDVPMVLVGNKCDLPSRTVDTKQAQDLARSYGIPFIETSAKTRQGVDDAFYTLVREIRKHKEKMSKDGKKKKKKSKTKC
T2 sequence (P01116 other isoform, or with tags, fused parts or gaps G12D): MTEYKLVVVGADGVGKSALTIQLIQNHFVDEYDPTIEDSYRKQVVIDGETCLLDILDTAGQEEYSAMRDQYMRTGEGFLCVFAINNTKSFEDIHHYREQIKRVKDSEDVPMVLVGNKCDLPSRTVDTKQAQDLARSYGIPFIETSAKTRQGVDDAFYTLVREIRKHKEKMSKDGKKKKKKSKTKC
T4 sequence (P01116 other isoform, or with tags, fused parts or gaps G12V): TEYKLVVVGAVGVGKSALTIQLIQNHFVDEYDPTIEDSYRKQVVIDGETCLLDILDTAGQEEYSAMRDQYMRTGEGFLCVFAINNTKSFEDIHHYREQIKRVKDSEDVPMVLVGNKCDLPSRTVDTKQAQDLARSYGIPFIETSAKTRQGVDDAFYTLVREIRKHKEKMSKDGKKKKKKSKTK

| pKd (KRAS Wild Type [1]) | pIC50 [2] | pKd (KRAS G12D [3]) | pKd (HRAS Wild Type) | pKd (KRAS G12C [4]) | pIC50 [5] | pKd (NRAS Wild Type) | pKd (KRAS G12C [6]) | pIC50 [7] | pKd (KRAS G12V [8]) | pKd (KRAS Wild Type [9]) | pKd (KRAS G12D [10]) | pKd (KRAS G12V [11]) | SMILES |
| --- | --- | --- | --- | --- | --- | --- | --- | --- | --- | --- | --- | --- | --- |
| 10.42 | 7.08 | 8.00 | < 5.00 | 10.51 | 7.14 | < 5.00 | 7.92 | 8.15 | 9.98 | 7.85 | 10.32 | 8.10 | Fc1c(-c2c(C3CC3)c(Cl)cc3[nH]ncc23)nc2c3c(nc(OC[C@@]45CCCN4C[C@H](F)C5)nc13)N1CCCOC[C@H]1CO2 [Example 1, (8aS)-5-(6-chloro-5-cyclopropyl-1H-indazol-4-yl)-4-fluoro-2-{[(2R,7aS)-2-fluorotetrahydro-1H-pyrrolizin-7a(5H)-yl]methoxy}-8a,9,12,13-tetrahydro-8H,11H-7,10-dioxa-1,3,6,13a-tetraazanaphtho[1,8-ab]heptalene] |
| < 5.00 | < 5.00 | < 6.00 |  | < 5.00 | < 5.00 |  | < 6.00 | < 5.00 | < 5.00 | < 6.00 | < 5.00 | < 6.00 | Fc1c(-c2cccc3[nH]ncc23)nc2c3c(nc(OC[C@@]45CCCN4C[C@H](F)C5)nc13)N1CCCOC[C@H]1CO2 [Example 3, (8aS)-4-fluoro-2-{[(2R,7aS)-2-fluorotetrahydro-1H-pyrrolizin-7a(5H)-yl]methoxy}-5-(1H-indazol-4-yl)-8a,9,12,13-tetrahydro-8H,11H-7,10-dioxa-1,3,6,13a-tetraazanaphtho[1,8-ab]heptalene] |
| 10.04 | 6.50 | 7.72 |  | 10.29 | 6.87 |  | 7.41 | 7.68 | 10.17 | 7.40 | 10.62 | 7.54 | C=C1CN2CCC[C@@]2(COc2nc3c4c(nc(-c5c(Cl)c(Cl)cc6[nH]ncc56)c(F)c4n2)OC[C@@H]2COCCCN32)C1 [Example 11, (8aS)-5-(5,6-dichloro-1H-indazol-4-yl)-4-fluoro-2-{[(7aS)-2-methylidenetetrahydro-1H-pyrrolizin-7a(5H)-yl]methoxy}-8a,9,12,13-tetrahydro-8H,11H-7,10-dioxa-1,3,6,13a-tetraazanaphtho[1,8-ab]heptalene] |
| 9.59 | 6.33 | 7.38 |  | 9.91 | 6.68 |  | 7.08 | 7.46 | 9.97 | 7.02 | 9.94 | 7.21 | C=C1CN2CCC[C@@]2(COc2nc3c4c(nc(-c5c(C(F)(F)F)ccc6[nH]ncc56)c(F)c4n2)OC[C@@H]2COCCCN32)C1 [Example 12, (8aS)-4-fluoro-2-{[(7aS)-2-methylidenetetrahydro-1H-pyrrolizin-7a(5H)-yl]methoxy}-5-[5-(trifluoromethyl)-1H-indazol-4-yl]-8a,9,12,13-tetrahydro-8H,11H-7,10-dioxa-1,3,6,13a-tetraazanaphtho[1,8-ab]heptalene] |
|  | 8.22 | 8.70 | < 5.00 |  | 7.62 | < 5.00 | 9.00 | 7.89 |  | 8.52 |  | 8.70 | C[C@@H]1CCCc2cc3[nH]ncc3c(-c3nc4c5c(nc(OC[C@@]67CCCN6C/C(=C/F)C7)nc5c3F)N3CCCOC[C@H]3CO4)c21 [Example 55, (8aS)-4-fluoro-2-{[(2E,7aS)-2-(fluoromethylidene)tetrahydro-1H-pyrrolizin-7a(5H)-yl]methoxy}-5-[(5R)-5-methyl-5,6,7,8-tetrahydro-1H-benzo[f]indazol-4-yl]-8a,9,12,13-tetrahydro-8H,11H-7,10-dioxa-1,3,6,13a-tetraazanaphtho[1,8-ab]heptalene] |

The next lines start with the compound.

| SMILES | pKd (KRAS Wild Type [1]) | pIC50 [2] | pKd (KRAS G12D [3]) | pKd (HRAS Wild Type) | pKd (KRAS G12C [4]) | pIC50 [5] | pKd (NRAS Wild Type) | pKd (KRAS G12C [6]) | pIC50 [7] | pKd (KRAS G12V [8]) | pKd (KRAS Wild Type [9]) | pKd (KRAS G12D [10]) | pKd (KRAS G12V [11]) |
| --- | --- | --- | --- | --- | --- | --- | --- | --- | --- | --- | --- | --- | --- |
| C=C1CN2CCC[C@@]2(COc2nc3c4c(nc(-c5c(C6CC6)c(Cl)cc6[nH]ncc56)c(F)c4n2)OC[C@@H]2COCCCN32)C1 [Example 2, (8aS)-5-(6-chloro-5-cyclopropyl-1H-indazol-4-yl)-4-fluoro-2-{[(7aS)-2-methylidenetetrahydro-1H-pyrrolizin-7a(5H)-yl]methoxy}-8a,9,12,13-tetrahydro-8H,11H-7,10-dioxa-1,3,6,13a-tetraazanaphtho[1,8-ab]heptalene] | 11.40 | 7.85 | 9.00 | < 5.00 | 10.72 | 8.00 | < 5.00 | 8.30 | > 8.70 | 9.84 | 8.30 | 10.39 | 8.40 |
| Fc1c(-c2c(Cl)c(Cl)cc3[nH]ncc23)nc2c3c(nc(OC[C@@]45CCCN4C[C@H](F)C5)nc13)N1CCCC[C@H]1CO2 [Example 4, (8aS)-5-(5,6-dichloro-1H-indazol-4-yl)-4-fluoro-2-{[(2R,7aS)-2-fluorotetrahydro-1H-pyrrolizin-7a(5H)-yl]methoxy}-8,8a,9,10,11,12-hexahydro-7-oxa-1,3,6,12a-tetraazabenzo[4,5]cyclohepta[1,2,3-de]naphthalene] | 8.11 | 5.47 | 5.69 |  | 8.37 | 6.27 |  | 5.64 | 6.52 | 8.59 | 5.64 | 8.87 | 5.80 |
| C=C1CN2CCC[C@@]2(COc2nc3c4c(nc(-c5c(C)ccc6[nH]ncc56)c(F)c4n2)OC[C@@H]2COCCCN32)C1 [Example 5, (8aS)-4-fluoro-2-{[(7aS)-2-methylidenetetrahydro-1H-pyrrolizin-7a(5H)-yl]methoxy}-5-(5-methyl-1H-indazol-4-yl)-8a,9,12,13-tetrahydro-8H,11H-7,10-dioxa-1,3,6,13a-tetraazanaphtho[1,8-ab]heptalene] | 8.27 | 5.57 | 5.91 |  | 8.71 | 5.64 |  | 5.81 | 5.98 | 8.56 | 5.84 | 8.66 | 5.84 |
| C=C1CN2CCC[C@@]2(COc2nc3c4c(nc(-c5c(Cl)ccc6[nH]ncc56)c(F)c4n2)OC[C@@H]2COCCCN32)C1 [Example 6, (8aS)-5-(5-chloro-1H-indazol-4-yl)-4-fluoro-2-{[(7aS)-2-methylidenetetrahydro-1H-pyrrolizin-7a(5H)-yl]methoxy}-8a,9,12,13-tetrahydro-8H,11H-7,10-dioxa-1,3,6,13a-tetraazanaphtho[1,8-ab]heptalene] | 8.60 | 5.88 | 6.33 |  | 9.05 | 6.07 |  | 6.20 | 6.39 | 8.91 | 6.26 | 9.02 | 6.19 |
| C=C1CN2CCC[C@@]2(COc2nc3c4c(nc(-c5c(C(F)F)ccc6[nH]ncc56)c(F)c4n2)OC[C@@H]2COCCCN32)C1 [Example 10, (8aS)-5-[5-(difluoromethyl)-1H-indazol-4-yl]-4-fluoro-2-{[(7aS)-2-methylidenetetrahydro-1H-pyrrolizin-7a(5H)-yl]methoxy}-8a,9,12,13-tetrahydro-8H,11H-7,10-dioxa-1,3,6,13a-tetraazanaphtho[1,8-ab]heptalene] | 8.10 | 5.02 | 5.59 |  | 8.74 | 5.34 |  | 5.49 | 6.32 | 8.41 | 5.54 | 8.68 | 5.55 |
| C=C1CN2CCC[C@@]2(COc2nc3c4c(nc(-c5c(C(F)(F)F)c(Cl)cc6[nH]ncc56)c(F)c4n2)OC[C@@H]2COCCCN32)C1 [Example 13, (8aS)-5-[6-chloro-5-(trifluoromethyl)-1H-indazol-4-yl]-4-fluoro-2-{[(7aS)-2-methylidenetetrahydro-1H-pyrrolizin-7a(5H)-yl]methoxy}-8a,9,12,13-tetrahydro-8H,11H-7,10-dioxa-1,3,6,13a-tetraazanaphtho[1,8-ab]heptalene] | > 12.00 | 7.15 | 9.00 |  | 10.77 | 7.59 |  | 8.40 | 8.15 | 10.14 | 8.30 | 9.97 | 8.52 |
